{"source": "patent US7259167B2", "about": "“Antimalarial and antiproliferative pharmacophore models, novel tryptanthrin compounds having increased solubility, and methods of making and using thereof” (United States of America as Represented by the Secretary of …, priority 2002, dated 2007)", "key": {"[1]": {"test": "Hemin binding activity assay by 1H NMR (pseudocontact shifts)", "conditions": "DMSO-d6", "procedure": "(§1) As provided in Example 5, the hemin binding affinity for a series of tryptanthrin compounds with functional groups at the 8-position with different electron donating/withdrawing characteristics corresponding with the pharmacophore model of the present invention was determined by ^1H NMR. The binding interaction was measured as a function of the induced up-field shift in the chemical shift as a function of increasing hemin concentration. ^1H spectra of selected compounds each analog with an increasing concentration of hemin were collected and analyzed for the effect of the pseudocontact shifts.\nIt is well known that bio-molecules containing the paramagnetic species Fe^+3 induce via pseudocontact effect (a thru-space paramagnetic interaction, similar to the thru-space diopolar interaction or NOE) up-field chemical shifts of the ^1H, ^13C, ^15N atoms of bound ligands. See Serge Moreau et al. (1985) Biochemica et. Biophysica Acta 107-116; Alam, S. L., et al. (1998) J. Biomol. NMR 11:119-133; and Kalodimos, C. G., et al. (2000) J. Inorg. Biochem. 79:371-380, which are herein incorporated by reference. […] See Crowley, P. B., et al. (2001) J. Am. Chem. Soc. 123:10444-10453, which is herein incorporated by reference. Consequently, the closer a particular proton on the ligand is to the Fe^+3 atom, the greater the induced Δδ.\nas §1, with “The” for “As provided in Example 5, the”, “using” for “by”, “of” for “of selected compounds”\nTo each sample, a 100 or 200 μl aliquot of a known concentration of hemin dissolved in 1.0 ml of DMSO-d6 was added. The concentrations of the tryptanthrin compounds compounds ranged from 3.0 to 8.0 mg per 500 μl of DMSO. A corresponding solution of hemin in DMSO was prepared to maintain a molar ratio of tryptanthrin compounds to hemin in the range of 1:1.0 to 1:1.5.\nAll ^1H NMR data was collected using a Bruker Avance-600 spectrometer using methods known in the art. See e.g. Wang, J., et al. (2001) J. Am. Chem. Soc. 123:8080-8088, which is herein incorporated by reference. The proton spectra were collected at 300 K, using a spectral width of 9090.9 Hz. All spectra were acquired with 64k data points in F2. All chemical shifts were referenced internally to TMS (0.00 ppm). The spectra were processed using XWINNMR (Bruker BioSpin Corporation, Billerica, Mass.) on a Silicon Graphics O2 workstation (Silicon Graphics, Mountain View, Calif.). Each data set was multiplied by a Gaussain window function with 0.3 Hz line broadening in each dimension before transformation."}, "[2]": {"test": "Characteristics of DN49 dosing preparation", "format": "physicochemical", "conditions": "Hot DMSO and further diluted in PBS (1:10)", "procedure": "DN49 was a yellow powder and dissolved completely in hot DMSO. The hot DMSO solution was then diluted 1:10 in PBS."}, "[3]": {"test": "Solubility of DN49 in various solvents", "format": "physicochemical", "conditions": "for solubility: organic solvent or mixture", "procedure": "The solubility of DN49 (WR288510) was tested in various solvents to determine the properties encouraging solubility. […] An N—H group on an aromatic compound might be forming a complex with tryptanthrin. […] (200 mM) concentration in a solvent. The temperature is a close approximation to the temperature required to achieve solubility. Color is the color of the solution; DN49 is a yellow compound and colors other than yellow indicate close interaction between solvent and solute. Precipitate is whether or not DN49 precipitated out upon cooling to room temperature."}, "[4]": {"test": "Further solubility experiments (remaining in solution after dilution)", "format": "physicochemical", "procedure": "After determining that heterocycles and hydroxy or amine substituted aromatics dissolve tryptanthrin compounds, the following was conducted to determine if once dissolved the compounds would remain in solution in aqueous environments. To this end 10 mg of DN49 was dissolved in 1.0 ml of piperidine to obtain a green solution. This solution was then added dropwise to 2.0 ml of deionized water without precipitation of the compound. The solution was placed in a chemical fume hood so that the piperidine could evaporate slowly. After a week, the piperidine had evaporated and the resulting solution had no solid in the aqueous environment and had turned from the green color of the piperidne complex back to the yellow color of uncomplexed DN49 solutions.\nA […] green stock solution of DN49 in 1-(3-aminopropyl)imidazole was formed. To 1.95 ml of a given solvent listed below, 50 microliter of the stock solution was added and the resulting solution was vortexed for a second to ensure rapid mixing; this provided a 5 mM solution. The results by solvent follow: • 1. Chloroform: Solution goes from green to yellow in less than 30 minutes; no solid after more than three months at ambient conditions. • 2. Methanol: Solution goes from green to yellow between 5 and 12 hours after mixing; no solid. • 3. 1,4-dioxane: Solution goes from green to yellow in approximately 1 hour; no solid. • 4. Deionized water: Solution goes from […] over the course of several days; no solid. • 5. Acetonitrile: Solution goes from green to yellow in about 3 hours; no solid. • 6."}}, "data": [{"smiles": "O=C1c2ccccc2-n2c1nc1ncccc1c2=O", "note": "[DN49]", "values": [{"measurement": "Maximum induced Δδ", "setting": "[1]; hemin induced pseudocontact chemical shift", "value": 0.558, "unit": "ppm"}, {"measurement": "Concentration dependence Δδ", "setting": "[1]; slope of Δδ v. hemin concentration", "value": 0.09778, "unit": "ppm/mole %"}, {"measurement": "solubility", "setting": "[2]", "value": "Partial"}, {"measurement": "Precipitate upon cooling to room temperature", "setting": "[3]; 1,4-dioxane", "value": "yes"}, {"measurement": "solubility", "setting": "[3]; 1,4-dioxane, 80 °C", "value": "> 25", "unit": "mg/mL"}, {"measurement": "solubility", "setting": "[3]; 3,4-dihydro-2H-pyran", "value": "< 25", "unit": "mg/mL"}, {"measurement": "Precipitate upon cooling to room temperature", "setting": "[3]; Aniline", "value": "No"}, {"measurement": "solubility", "setting": "[3]; Aniline, 18 °C", "value": "> 25", "unit": "mg/mL"}, {"measurement": "Precipitate upon cooling to room temperature", "setting": "[3]; Benzoic acid", "value": "Yes"}, {"measurement": "solubility", "setting": "[3]; Benzoic acid, 50 °C", "value": "> 25", "unit": "mg/mL"}, {"measurement": "solubility", "setting": "[3]; Benzyl alcohol, 30 °C, Benzyly alcohol", "value": "> 25", "unit": "mg/mL"}, {"measurement": "Precipitate upon cooling to room temperature", "setting": "[3]; Benzyly alcohol", "value": "No"}, {"measurement": "solubility", "setting": "[3]; Diethylamine", "value": "< 25", "unit": "mg/mL"}, {"measurement": "solubility", "setting": "[3]; Dimethylsulfoxide, Dimethylsufoxide", "value": "< 25", "unit": "mg/mL"}, {"measurement": "Precipitate upon cooling to room temperature", "setting": "[3]; Indole", "value": "Solidified"}, {"measurement": "solubility", "setting": "[3]; Indole, 53 °C", "value": "> 25", "unit": "mg/mL"}, {"measurement": "Precipitate upon cooling to room temperature", "setting": "[3]; Isoquinoline", "value": "Solidified"}, {"measurement": "solubility", "setting": "[3]; Isoquinoline", "value": "> 25", "unit": "mg/mL"}, {"measurement": "Precipitate upon cooling to room temperature", "setting": "[3]; N-methylbenzylamine", "value": "No"}, {"measurement": "solubility", "setting": "[3]; N-methylbenzylamine", "value": "> 25", "unit": "mg/mL"}, {"measurement": "solubility", "setting": "[3]; N-methylpiperidine", "value": "< 25", "unit": "mg/mL"}, {"measurement": "Precipitate upon cooling to room temperature", "setting": "[3]; Nitrobenzene", "value": "Yes"}, {"measurement": "solubility", "setting": "[3]; Nitrobenzene", "value": "> 25", "unit": "mg/mL"}, {"measurement": "Precipitate upon cooling to room temperature", "setting": "[3]; Phenol", "value": "solidified"}, {"measurement": "solubility", "setting": "[3]; Phenol", "value": "> 25", "unit": "mg/mL"}, {"measurement": "Precipitate upon cooling to room temperature", "setting": "[3]; Piperidine", "value": "No"}, {"measurement": "solubility", "setting": "[3]; Piperidine", "value": "> 25", "unit": "mg/mL"}, {"measurement": "Precipitate upon cooling to room temperature", "setting": "[3]; Pyridine", "value": "Yes"}, {"measurement": "solubility", "setting": "[3]; Pyridine", "value": "> 25", "unit": "mg/mL"}, {"measurement": "Precipitate upon cooling to room temperature", "setting": "[3]; Pyrrole", "value": "No"}, {"measurement": "solubility", "setting": "[3]; Pyrrole", "value": "> 25", "unit": "mg/mL"}, {"measurement": "Precipitate upon cooling to room temperature", "setting": "[3]; Pyrrolidine", "value": "No"}, {"measurement": "solubility", "setting": "[3]; Pyrrolidine", "value": "> 25", "unit": "mg/mL"}, {"measurement": "solubility", "setting": "[3]; Tetrahydrofuran", "value": "< 25", "unit": "mg/mL"}, {"measurement": "solubility", "setting": "[3]; Toluene", "value": "< 25", "unit": "mg/mL"}, {"measurement": "solubility", "setting": "[3]; Triethylamine", "value": "< 25", "unit": "mg/mL"}, {"measurement": "solid in aqueous solution after evaporation of piperidine", "setting": "[4]; 10 mg in 1.0 ml piperidine added to 2.0 ml deionized water, after a week", "value": "no solid"}, {"measurement": "solid formation from 5 mM solution", "setting": "[4]; 50 microliter 200 mM stock in 1-(3-aminopropyl)imidazole into 1.95 ml Chloroform, more than three months at ambient conditions", "value": "no solid"}, {"measurement": "solid formation from 5 mM solution", "setting": "[4]; stock in 1-(3-aminopropyl)imidazole into 0.1 M aqueous citric acid", "value": "green solid fall out of solution after about 12 hours"}, {"measurement": "solid formation from 5 mM solution", "setting": "[4]; stock in 1-(3-aminopropyl)imidazole into 1,4-dioxane", "value": "no solid"}, {"measurement": "solid formation from 5 mM solution", "setting": "[4]; stock in 1-(3-aminopropyl)imidazole into 10% aqueous sodium bicarbonate", "value": "green precipitate after 8 hours"}, {"measurement": "solid formation from 5 mM solution", "setting": "[4]; stock in 1-(3-aminopropyl)imidazole into Acetonitrile", "value": "no solid"}, {"measurement": "solid formation from 5 mM solution", "setting": "[4]; stock in 1-(3-aminopropyl)imidazole into Deionized water", "value": "no solid"}, {"measurement": "solid formation from 5 mM solution", "setting": "[4]; stock in 1-(3-aminopropyl)imidazole into Methanol", "value": "no solid"}]}]}
